Results published in US20150291514A1, “N-Aminosulfonyl Benzamides” (Pfizer Limited, priority 2012, published 2015).
Structures can show the parent of a compound that is named as a salt.

Biological target: T1, Nav1.7 (or SCN9A) channel (Homo sapiens, UniProt Q15858)
T1 construct: expressed in transfected cells
Assay: Nav1.7 (hSCN9A) PatchXpress electrophysiology assay
Format: cell-based
Settings: estimated IC50 from single point electrophysiology data; PatchXpress platform; HEK cells expressing hSCN9A, held at V1/2 of inactivation; read-out: Nav1.7 EIC50
Method: The ability of the compounds of formula (I) to block the Nav1.7 (or SCN9A) channel were measured using the assay described below.
Human Embryonic Kidney (HEK) cells were transfected with an hSCN9A construct using lipofectamine reagent (Invitrogen), using standard techniques. Cells stably expressing the hSCN9A constructs were identified by their resistance to G-418 (400 μg/ml). Clones were screened for expression using the whole-cell voltage-clamp technique.
HEK cells stably transfected with hSCN9A were maintained in DMEM medium supplemented with 10% heat-inactivated fetal bovine serum and 400 μg/ml G-418 in an incubator at 37° C. with a humidified atmosphere of 10% CO2. For HTS, cells were harvested from flasks by trypsinization and replated in an appropriate multi-well plate (typically 96 or 384 wells/plate) such that confluence would be achieved within 24 hours of plating. For electrophysiological studies, cells were removed from the culture flask by brief trypsinization and re-plated at low density onto glass cover slips. Cells were typically used for electrophysiological experiments within 24 to 72 hours after plating.
Cover slips containing HEK cells expressing hSCN9A were placed in a bath on the stage of an inverted microscope and perfused (approximately 1 ml/minutes) with extracellular solution of the following composition: 138 mM NaCl, 2 mM CaCl2, 5.4 mM KCl, 1mM MgCl2, 10 mM glucose, and 10 mM HEPES, pH 7.4, with NaOH. […] The osmolarity of the extracellular and intracellular solutions was 300 mOsm/kg and 295 mOsm/kg, respectively. All recordings were made at room temperature (22-24° C.) using AXOPATCH 200B amplifiers and PCLAMP software (Axon Instruments, Burlingame, Calif.).
hSCN9A currents in HEK cells were measured using the whole-cell configuration of the patch-clamp technique (Hamill et al., 1981). Uncompensated series resistance was typically 2 to 5 mega ohms and >85% series resistance compensation was routinely achieved. As a result, voltage errors were negligible and no correction was applied. Current records were acquired at 20 to 50 KHz and filtered at 5 to 10 KHz.
HEK cells stably transfected with hSCN9A were viewed under Hoffman contrast optics and placed in front of an array of flow pipes emitting either control or compound-containing extracellular solutions. All compounds were dissolved in dimethyl sulfoxide to make 10 mM stock solutions, which were then diluted into extracellular solution to attain the final concentrations desired. […] The voltage-dependence of inactivation was determined by applying a series of depolarizing prepulses (8 sec long in 10 mV increments) from a negative holding potential. The voltage was then immediately stepped to 0 mV to assess the magnitude of the sodium current. Currents elicited at 0 mV were plotted as a function of prepulse potential to allow estimation of the voltage at which 50% of the channels were inactivated (midpoint of inactivation or V1/2). Compounds were tested for their ability to inhibit hSCN9A sodium channels by activating the channel with a 20 msec voltage step to 0 mV following an 8 second conditioning prepulse to the empirically determined V1/2. Compound effect (% inhibition) was determined by difference in current amplitude before and after application of test compounds. For ease of comparison, “estimated IC-50” (EIC50) values were calculated from single point electrophysiology data by the following equation, (tested concentration, uM)×(100-% inhibition/% inhibition). Inhibition values <20% and >80% were excluded from the calculation.
Electrophysiological assays were conducted with PatchXpress 7000 hardware and associated software (Molecular Devices Corp). All assay buffers and solutions were identical to those used in conventional whole-cell voltage clamp experiments described above. hSCN9A cells were grown as above to 50%-80% confluency and harvested by trypsinization. […]

T1 sequence (Q15858 whole entry): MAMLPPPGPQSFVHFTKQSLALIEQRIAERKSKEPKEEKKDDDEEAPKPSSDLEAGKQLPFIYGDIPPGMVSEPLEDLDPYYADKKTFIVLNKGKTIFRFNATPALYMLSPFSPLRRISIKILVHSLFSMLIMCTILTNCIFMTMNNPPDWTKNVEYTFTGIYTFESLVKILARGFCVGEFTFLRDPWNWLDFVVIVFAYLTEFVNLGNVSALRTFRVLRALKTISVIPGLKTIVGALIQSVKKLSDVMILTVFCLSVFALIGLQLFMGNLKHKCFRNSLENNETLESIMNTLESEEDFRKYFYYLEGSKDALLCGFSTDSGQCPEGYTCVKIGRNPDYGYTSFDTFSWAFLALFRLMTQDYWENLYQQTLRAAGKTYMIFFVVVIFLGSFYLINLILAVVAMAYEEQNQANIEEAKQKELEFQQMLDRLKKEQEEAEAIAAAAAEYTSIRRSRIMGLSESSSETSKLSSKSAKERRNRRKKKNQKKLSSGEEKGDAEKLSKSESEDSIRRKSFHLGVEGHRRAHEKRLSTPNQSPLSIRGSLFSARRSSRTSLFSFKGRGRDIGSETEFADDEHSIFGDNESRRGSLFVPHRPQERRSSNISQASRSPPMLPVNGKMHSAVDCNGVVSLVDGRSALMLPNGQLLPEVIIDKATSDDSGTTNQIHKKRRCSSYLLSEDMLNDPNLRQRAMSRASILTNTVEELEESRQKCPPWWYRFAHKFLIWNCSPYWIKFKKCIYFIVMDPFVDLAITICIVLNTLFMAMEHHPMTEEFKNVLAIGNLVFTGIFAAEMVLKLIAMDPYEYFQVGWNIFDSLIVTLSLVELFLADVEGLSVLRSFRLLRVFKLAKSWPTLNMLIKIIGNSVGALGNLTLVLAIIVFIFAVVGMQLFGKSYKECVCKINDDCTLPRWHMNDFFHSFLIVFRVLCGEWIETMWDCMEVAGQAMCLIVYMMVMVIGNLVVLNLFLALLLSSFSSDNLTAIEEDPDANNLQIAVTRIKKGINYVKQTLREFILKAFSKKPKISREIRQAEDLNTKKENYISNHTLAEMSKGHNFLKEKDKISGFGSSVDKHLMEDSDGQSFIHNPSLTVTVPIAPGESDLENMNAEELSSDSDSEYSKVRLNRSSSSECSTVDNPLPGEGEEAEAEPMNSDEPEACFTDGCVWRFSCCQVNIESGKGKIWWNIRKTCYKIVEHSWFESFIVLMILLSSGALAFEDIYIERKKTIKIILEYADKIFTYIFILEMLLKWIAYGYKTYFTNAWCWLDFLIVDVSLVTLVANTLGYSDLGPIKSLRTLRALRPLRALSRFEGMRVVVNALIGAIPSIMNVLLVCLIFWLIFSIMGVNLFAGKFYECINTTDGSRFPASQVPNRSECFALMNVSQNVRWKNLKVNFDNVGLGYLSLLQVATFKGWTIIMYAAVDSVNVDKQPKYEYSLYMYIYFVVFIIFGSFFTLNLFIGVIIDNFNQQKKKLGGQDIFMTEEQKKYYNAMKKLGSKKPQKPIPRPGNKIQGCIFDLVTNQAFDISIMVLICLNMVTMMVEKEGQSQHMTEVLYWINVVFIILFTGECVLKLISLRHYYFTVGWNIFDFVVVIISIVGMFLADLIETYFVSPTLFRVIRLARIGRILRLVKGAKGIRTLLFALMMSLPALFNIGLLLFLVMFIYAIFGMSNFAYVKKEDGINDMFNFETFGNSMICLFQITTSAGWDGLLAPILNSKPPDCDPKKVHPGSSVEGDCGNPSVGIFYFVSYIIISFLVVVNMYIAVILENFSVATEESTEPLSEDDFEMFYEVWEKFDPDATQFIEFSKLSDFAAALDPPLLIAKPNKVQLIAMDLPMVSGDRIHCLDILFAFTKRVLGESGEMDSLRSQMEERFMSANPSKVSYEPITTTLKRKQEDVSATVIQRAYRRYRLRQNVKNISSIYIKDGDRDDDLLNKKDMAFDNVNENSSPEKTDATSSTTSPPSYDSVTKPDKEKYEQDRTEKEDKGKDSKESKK

| IC50 [nM] | Compound |
| --- | --- |
| 600 | CN(C)S(=O)(=O)NC(=O)c1cc(F)c(Oc2cnc(NCC3CC3)c(Cl)c2)cc1F [Example 21, 4-({5-chloro-6-[(cyclopropylmethyl)amino]pyridine-3-yl}oxy)-N-[(dimethylamino)sulfonyl]-2,5-difluorobenzamide formate salt] |
| > 30000 | COc1cccc(Oc2ccc(C(=O)NS(=O)(=O)N(C)C)cc2)c1 [Example 9, N-[(dimethylamino)sulfonyl[-4-(3-methoxyphenoxy)benzamidediethylamine salt] |
| > 1000 | COc1ccccc1Oc1cc(F)c(C(=O)NS(=O)(=O)N(C)C)cc1F [Example 13, N-[(dimethylamino)sulfonyl]-2,5-difluoro-4-(2-methoxyphenoxy)benzamide] |
| 1200 | CN(C)S(=O)(=O)NC(=O)c1cc(F)c(Oc2cnc(N3CCC(F)C3)c(Cl)c2)cc1F (centres unmarked) [Example 20, 4-{[5-chloro-6-(3-fluoropyrrolidin-1-yl)pyridine-3-yl]oxy}-N-[(dimethylamino)sulfonyl]-2,5-difluorobenzamide formate salt] |
| 470 | CN(C)S(=O)(=O)NC(=O)c1cc(F)c(Oc2cnc(OC(C(F)(F)F)C(F)(F)F)c(Cl)c2)cc1F [Example 37] |
| > 3000 | COc1cc(Cl)ccc1Oc1cc(F)c(C(=O)NS(=O)(=O)N(C)C)cc1F [Example 7, 4-(4-chloro-2-methoxvphenoxy)-N-[(dimethylamino)sulfonyl]-2,5-difluorobenzamide] |
| 180 | CC(C)Oc1ncc(Oc2cc(F)c(C(=O)NS(=O)(=O)N3CCC3)cc2F)cc1Cl [Example 38, N-(azetidin-1-ylsulfonyl)-4-(5-chloro-6-isopropoxypyridin-3-yl)oxy)-2,5-difluorobenzamide diethylamine salt] |
| > 3000 | COc1cc(Cl)ccc1Oc1ccc(C(=O)NS(N)(=O)=O)cc1 [Example 4, N-(aminosulfonyl)-4-(4-chloro-2-methoxyphenoxy)benzamide] |
| 10000 | CCNS(=O)(=O)NC(=O)c1ccc(Oc2ccccc2-c2ccccc2)c(C#N)c1 [Example 19, 4-(biphenyl-2-yloxy)-3-cyano-N-[(ethylamino)sulfonyl]benzamide diethylamine salt] |
| 2500 | CN(C)S(=O)(=O)NC(=O)c1cc(F)c(Oc2cc(C(F)(F)F)c(Cl)cn2)cc1F [Example 35, 4-((5-chloro-4-(trifluoromethyl)pyridin-2-yl)oxy)-N-(N,N-dimethylsulfamoyl)-2,5-difluorobenzamide] |

| Compound | IC50 [nM] |
| --- | --- |
| CC(C)COc1ncc(Oc2cc(F)c(C(=O)NS(=O)(=O)N(C)C)cc2F)cc1Cl [Example 2, 4-[(5-Chloro-6-isobutoxvpvridin-3yl)oxy]-N-[(dimethylamino)sulfonyl]2,5-difluorobenzamide diethylamine salt] | 130 |
